Measurements reported in the NIST ThermoML archive (doi:10.1016/j.tca.2005.10.008).
Numbers after ± are expanded uncertainties.

Tests used:
[1] = xn = mol fraction of the nth substance listed; conditions: 303.15 K, 101 kPa, Liquid; for viscosity: Capillary tube (Ostwald / Ubbelohde) method; for excess molar volume: Direct dilatometry; for speed of sound: Linear variable-path acoustic interferometer
[2] = Liquid; for mass density: 101.33 kPa, Pycnometric method; for viscosity / speed of sound: 101.3 kPa; for viscosity: Capillary tube (Ostwald / Ubbelohde) method; for speed of sound: Linear variable-path acoustic interferometer; for Normal boiling temperature: Distillation

CC(C)OC(C)C [diisopropyl ether] + C1CCCCC1
[1]
Conditions	excess molar volume [m3/mol]	speed of sound [m/s]	viscosity [mPa·s]
x1 = 0.118	3.2e-08 ± 8e-09	1187.4 ± 3.9	0.666 ± 0.007
x1 = 0.2172	4.7e-08 ± 8e-09	1157.7 ± 3.8	0.589 ± 0.006
x1 = 0.357	6.3e-08 ± 8e-09	1117.9 ± 3.7	0.513 ± 0.005
x1 = 0.3972	6.6e-08 ± 8e-09	1106.9 ± 3.7	0.494 ± 0.005
x1 = 0.5029	6.9e-08 ± 8e-09	1080.7 ± 3.6	0.452 ± 0.005
x1 = 0.6777	6.3e-08 ± 8e-09	1041.6 ± 3.5	0.403 ± 0.004
x1 = 0.8199	3.9e-08 ± 8e-09	1011.6 ± 3.4	0.373 ± 0.004
x1 = 1	–	974.9 ± 3.3	0.35 ± 0.004

CCCCCCCC [octane]
[2]
Conditions	mass density [kg/m3]	speed of sound [m/s]	viscosity [mPa·s]
298.15 K	697.36 ± 0.73	–	–
303.15 K	692.56 ± 0.7	1152 ± 4	0.477 ± 0.005

Conditions	Normal boiling temperature [°C]
[2]	126.00 ± 0.1

CCCCCCC [heptane]
[2]
Conditions	mass density [kg/m3]	speed of sound [m/s]	viscosity [mPa·s]
298.15 K	678.93 ± 0.72	–	–
303.15 K	674.38 ± 0.71	1110.5 ± 3.7	0.387 ± 0.004

Conditions	Normal boiling temperature [°C]
[2]	98.20 ± 0.1

CC(C)OC(C)C [diisopropyl ether] + CC(C)CC(C)(C)C
[1]
Conditions	excess molar volume [m3/mol]	speed of sound [m/s]	viscosity [mPa·s]
x1 = 0.1561	1.43e-07 ± 8e-09	1047.6 ± 3.5	0.441 ± 0.005
x1 = 0.2397	2.09e-07 ± 8e-09	1040.4 ± 3.5	0.432 ± 0.005
x1 = 0.3083	2.28e-07 ± 8e-09	1034.5 ± 3.4	0.422 ± 0.005
x1 = 0.4565	2.79e-07 ± 8e-09	1022.6 ± 3.4	0.405 ± 0.004
x1 = 0.4804	2.75e-07 ± 8e-09	1019.7 ± 3.4	0.4 ± 0.004
x1 = 0.6222	2.5e-07 ± 8e-09	1007.5 ± 3.4	0.38 ± 0.004
x1 = 0.8133	1.54e-07 ± 8e-09	991.1 ± 3.3	0.36 ± 0.004
x1 = 0.8775	1.24e-07 ± 8e-09	985.6 ± 3.3	0.355 ± 0.004
x1 = 1	–	974.9 ± 3.3	0.35 ± 0.004

CC(C)CC(C)(C)C [2,2,4-trimethylpentane]
[2], 303.15 K
Conditions	speed of sound [m/s]	viscosity [mPa·s]
–	1060.8 ± 3.5	0.455 ± 0.005

c1ccccc1 [benzene] + CC(C)OC(C)C
[1], x2 = 0
Conditions	speed of sound [m/s]	viscosity [mPa·s]
–	1275.5 ± 4.2	0.566 ± 0.006

c1ccc2c(c1)CCCC2 [1,2,3,4-tetrahydronaphthalene]
[2]
Conditions	mass density [kg/m3]	speed of sound [m/s]	viscosity [mPa·s]
298.15 K	965.89 ± 0.91	–	–
303.15 K	955.44 ± 0.9	1477 ± 5	1.749 ± 0.017

Conditions	Normal boiling temperature [°C]
[2]	208.30 ± 0.1

CC(C)OC(C)C [diisopropyl ether]
[2]
Conditions	mass density [kg/m3]	speed of sound [m/s]	viscosity [mPa·s]
298.15 K	718.14 ± 0.74	–	–
303.15 K	711.97 ± 0.67	974.9 ± 3.3	0.35 ± 0.004

Conditions	Normal boiling temperature [°C]
[2]	68.20 ± 0.1

C1CCCCC1 [cyclohexane] + CC(C)OC(C)C
[1], x2 = 0
Conditions	speed of sound [m/s]	viscosity [mPa·s]
–	1231 ± 4	0.793 ± 0.008

CC(C)OC(C)C [diisopropyl ether] + CCCCCCC
[1]
Conditions	excess molar volume [m3/mol]	speed of sound [m/s]	viscosity [mPa·s]
x1 = 0.1462	1.67e-07 ± 8e-09	1090.7 ± 3.6	0.385 ± 0.004
x1 = 0.2667	2.45e-07 ± 8e-09	1072.8 ± 3.6	0.377 ± 0.004
x1 = 0.4165	3.16e-07 ± 8e-09	1050.6 ± 3.5	0.365 ± 0.004
x1 = 0.4774	3.24e-07 ± 8e-09	1041.8 ± 3.5	0.359 ± 0.004
x1 = 0.5331	3.27e-07 ± 8e-09	1033.9 ± 3.4	0.356 ± 0.004
x1 = 0.6068	3.01e-07 ± 8e-09	1023.9 ± 3.4	0.352 ± 0.004
x1 = 0.7371	2.61e-07 ± 8e-09	1006.9 ± 3.4	0.346 ± 0.004
x1 = 0.8642	1.73e-07 ± 8e-09	991.3 ± 3.3	0.345 ± 0.004
x1 = 1	–	974.9 ± 3.3	0.35 ± 0.004

CC(C)OC(C)C [diisopropyl ether] + c1ccccc1
[1]
Conditions	excess molar volume [m3/mol]	speed of sound [m/s]	viscosity [mPa·s]
x1 = 0.0962	-1.61e-07 ± 8e-09	1232.1 ± 4	0.542 ± 0.006
x1 = 0.1813	-2.87e-07 ± 8e-09	1201.5 ± 3.9	0.522 ± 0.005
x1 = 0.3084	-4.17e-07 ± 8e-09	1159.2 ± 3.8	0.492 ± 0.005
x1 = 0.3375	-4.42e-07 ± 8e-09	1148.4 ± 3.8	0.486 ± 0.005
x1 = 0.4703	-4.86e-07 ± 8e-09	1108.5 ± 3.7	0.456 ± 0.005
x1 = 0.6323	-4.62e-07 ± 8e-09	1064.1 ± 3.5	0.422 ± 0.005
x1 = 0.7927	-3.32e-07 ± 8e-09	1022.2 ± 3.4	0.389 ± 0.004
x1 = 1	–	974.9 ± 3.3	0.35 ± 0.004

C1CCCCC1 [cyclohexane]
[2]
Conditions	mass density [kg/m3]	speed of sound [m/s]	viscosity [mPa·s]
298.15 K	773.98 ± 1	–	–
303.15 K	769.14 ± 0.99	1231 ± 4	0.793 ± 0.008

Conditions	Normal boiling temperature [°C]
[2]	80.80 ± 0.1
